Data set [1] relates to Mouse lymphoma cells, line L5178Y clone 3.7.2.C. The data set is described as follows: Cell tissue culture cytotoxicity assay of relative drug/prodrug toxicity. Type of data set: cell-based. The protocol:
A tissue culture assay using a mouse lymphoma cell line [Phillips (1974), Biochem. Pharmacol. 23, 131-138] was used to determine the relative toxicity of drug and prodrug samples. The cepholosporin - prodrugs tested were those of Example 2,5,6 - 10 and 12.
For compounds of Examples 2, and 7-10 the corresponding non-cephalosporin linked drug was tested. In the case of compounds of Examples 5, 6 and 12 the drug portion of the prodrug was generated in situ in the assay by the addition of the enzyme β-lactamase as indicated below.
Mouse lymphoma cells, line L5178Y clone 3.7.2.C, was used for these studies. This clone was derived from the L5178Y wild-type line and is heterozygous for the thymidine kinase locus. It is widely used for assays of mutation to thymidine analogue resistance (loss of thymidine kinase). Stocks were maintained frozen in liquid nitrogen and recovered 7 days before the start of the study.
The cells were grown in RPMI 1640 medium buffered with 25 mM HEPES, and supplemented with 10% horse serum, 1mM sodium pyruvate, and 0.05% Pluriol (PF 6800 from BASF). In most cases, penicillin (100 iu/ml) and streptomycin (100µg/ml) were also included in the medium. Stock cultures were maintained by subculture into fresh medium every 2-3 days. Incubation was at 37 °C in an atmosphere of 5% CO₂ in air. Under these conditions, the cells grew as a static cell suspension with a population doubling time (cell cycle time) of 10-12 hr.
A growing culture, at a cell density of 1-2 x 10⁶/ml, was diluted with fresh medium to a density of 5 x 10⁵ cells/ml. An appropriate number of universal bottles was prepared with 4.5ml medium and O.5ml cell suspension to give a final cell concentration of 5 x 10⁴ cells/ml. In some tests, the cells were centrifuged and resuspended in Hank's Balanced Salt Solution (HBSS) to allow treatment in a simpler medium. […]
Cell growth was expressed as the number of population doublings (PD) achieved during a given time period ( t hrs ), calculated as follows: [drawing 5]
Growth relative to control ( % G ) was calculated for each treatment as follows: [drawing 6] […]

Data set [2] deals with O=C(Cc1cccs1)N[C@@H]1C(=O)N2C(C(=O)O)=C(CSc3ncnc4[nH]cnc34)CS[C@H]12. The data set is described as follows: purified protein, by the assay type. Conditions: 37.0 °C.

Read-outs that look alike come from different tables or passages of the source.

For orientation: Km means the concentration of substrate that gives half-maximal velocity.

For the molecule `Nc1nc2nc[nH]c2c(=S)[nH]1` [Thioguanine (drug), Thioguanine, reference compound], the IC50 in data set [1] (Mus musculus, L5178Y, read-out: ID50) worked out at 0.53 µM.
As for “β-lactamase (E.coli RTEM) (Escherichia coli)”, in data set [2], the Km was determined as 138 µM.
In the case of `Nc1nc(SCC2=C(C(=O)O)N3C(=O)[C@@H](NC(=O)Cc4cccs4)[C@H]3SC2)c2[nH]cnc2n1` [Example 9, 3-(Guanin-6-ylthiomethyl)-7β-(2-acetamido)-3-cephem-4-carboxylic acid], in data set [1] (mouse lymphoma L5178Y cells), the “Differential Toxicity (ID50 Prodrug/drug)” value was 13. Besides, the IC50 in data set [1] (mouse lymphoma L5178Y cells, growth relative to control, read-out: ID50 (the source's name)) came out at 6.44 µM.
